Measurements as given in patent US7897578B2, “Peptides with anti-proliferative activity” (Societe de Conseils de Recherches et d'Applications …, priority 2006, dated 2011).
No end group written: not given here.

Columns and labels:
[1] = system: human SHSY-5Y neuroblastoma tumour xenograft; test: In vivo cell proliferation test, SHSY-5Y cells xenografted into athymic mice; parameters: species or system athymic balb-c NCr-nu/nu mice; details: for reduction in the size of the tumour: after 21 days
Description: 3/In vivo Cell Proliferation Test on Cells of the SHSY-5Y Type with Compound 1:
(§1) Cancerous cells from human SHSY-5Y neuroblastomas (Code ATCC: CRL-2266) are cultured in DMEM medium (Dulbecco's Modified Eagle's Medium) containing 100 U/ml of penicillin and 100 μg/ml of streptomycin sulphate, complemented with 10% foetal calf serum. The cells thus cultured are then xenografted by sub-cutaneous route into the flanks of athymic balb-c NCr-nu/nu mice, aged 4 to 6 weeks.
After a latent period of several days following the graft, the SHSY-SY cells proliferate and form a small tumour (approximately 70 mm^3) which is obvious under the flank of the animal.
Compound 1 is, at this stage of growth of the tumour, injected by intra-peritoneal route in doses of 5 and 10 mg/kg.
The results are reproduced in FIG. 2 describing the effect of compound 1 on growth kinetics and tumour volume.

[2] = Toxicity test in xenografted athymic mice (weight of the animals); format: in vivo; details: 5 and 10 mg/kg intra-peritoneal
Description: 4/Toxicity Test of Compound 1:
as §1, with “mice.” for “balb-c NCr-nu/nu mice, aged 4 to 6 weeks.”
After a latent period of several days, the SHSY-5Y cells proliferate and form a small, obvious tumour (approximately 70 mm^3).
Compound 1, at this stage of the tumour's growth, is injected by intra-peritoneal route in doses of 5 and 10 mg/kg.
The results are reproduced in FIG. 3 describing the development of the weight of the animals as a function of time, which is an indicator of the possible toxicity of the products tested in this athymic mouse model.

YTVLSVGPGGLRSGRLPLQPRVQLDER-NH2 [Compound 1]
growth kinetics of the tumour ([1]; 5 mg/kg intra-peritoneal): slowing down | reduction in the size of the tumour ([1]; 5 mg/kg intra-peritoneal): approximately 20% | growth kinetics of the tumour ([1]; 10 mg/kg intra-peritoneal): very clear slowing down | reduction in the size of the tumour ([1]; 10 mg/kg intra-peritoneal): approximately 50% | anti-tumour activity ([1]; intra-peritoneal, 5 and 10 mg/kg, SHSY-5Y xenograft): dose-dependant anti-tumour activity | toxicity ([2]; inferred from animal weight): apparent absence of toxicity | effect on the weight of the animals ([2]; xenografted athymic mice): no effect
